Where a SMILES comes first, the peptide text is derived from it. Where no end group is shown, it is not given here. [ ]: non-standard residue; d: D form. The star is where a group is joined. Nle = CCCC[C@H](N)C(=O)O; Cbz = O=C(OCc1ccccc1)*
Legend:
[1] = tested on: processing of PGRN into GRNs; experiment: Protease inhibitor panel, PGRN/GRN levels by immunoblot; format: cell-based, human; details: HAP1 WT cells, 24 hrs
Method: (§1) Asterisks (*) denote endogenous, intermediate PGRN cleavage products.
Processing of PGRN into GRNs likely involves one or more lysosomal proteases. To narrow down which class of proteases may be responsible for intracellular PGRN metabolism, HAP1 WT cells were treated with a panel of protease inhibitors and measured PGRN/GRN levels by immunoblot. […] One potential candidate lysosomal cysteine protease is cathepsin L, which was reported to cleave mouse PGRN in vitro.

[2] = tested on: processing of PGRN into GRNs; experiment: Pan-lysosomal inhibitor treatment, PGRN/GRN levels by ELISA and immunoblot; format: cell-based, human; details: HAP1 WT cells, 24 hrs, CQ 50 μM, BafA1 50 nM, ConA 50 nM; for secreted PGRN: conditioned media ELISA; for GRN levels / intracellular PGRN: immunoblot
Method: HAP1 WT cells were treated for 24 hrs with the pan-lysosome inhibitors chloroquine (CQ; 50 μM), bafilomycin A1 (BafA1; 50 nM), or concanamycin A (ConA; 50 nM) and conditioned media was analyzed for secreted PGRN by ELISA.
as §1
Because rapid processing of endocytosed PGRN into GRNs was observed, inhibiting lysosome function could impair GRN production. To determine the effect of pharmacologic lysosome inhibition on GRN levels, HAP1 WT cells were treated with the pan-lysosomal inhibitors chloroquine, bafilomycin A1, or concanamycin A1 for 24 hours and monitored PGRN/GRN levels by immunoblot. These compounds act as lysosome alkalizing agents or inhibitors of the vacuolar-type H+-ATPase (V-ATPase), which is needed for proper lysosome acidification and function. Further, these compounds increase intracellular and secreted PGRN.

[3] = tested on: processing of PGRN into GRNs; experiment: Cathepsin L inhibitor II treatment, PGRN/GRN levels by immunoblot; format: cell-based, human; details: HAP1 WT cells, increasing concentrations, 40 hrs
Excerpt: as §1

[4] = at 25° C.; cited from earlier work
Grn KO MEF cells = experiment: Rescue of cathepsin-D (CTSD) phenotype in Grn KO MEFs by exogenous protein; format: cell-based, mouse; details: PGRN 10 μg/mL or GRN-2 proteins 25 μg/mL, 120 hrs, immunoblot
[5] = tested on: PGRN KO mouse embryonic fibroblasts (MEFs); experiment: Uptake of recombinant PGRN and generation of GRNs in PGRN KO MEFs; format: cell-based; details: 5 or 10 μg/mL, immunoblot
Method: PGRN KO MEF cells were treated with recombinant human PGRN (5 or 10 μg/mL) or recombinant mouse PGRN (5 μg/mL) in the media for 24 hrs and lysates were analyzed for PGRN (R&D AF2420) and GRN (Sigma) by immunoblot.
Because this study focused on screening and validating human specific PGRN antibodies, antibodies to detect endogenous mouse GRNs have not been identifies. Nevertheless, to determine if mouse cells are able to process human PGRN into mature GRNs, primary PGRN KO mouse embryonic fibroblasts (MEFs) were treated with recombinant human or mouse PGRN for […]. PGRN/GRN levels were measured in the lysates by immunoblot. […] Next, experiments were performed to determine if human PGRN would be processed into GRNs in mouse brain. Somatic brain transgenesis (SBT) were performed by injecting rAAV2/1 encoding eGFP or human N-TAP PGRN into the cerebral ventricles of newborn (PO) PGRN KO mice. The SBT paradigm leads to transgene expression that is almost exclusively neuronal as assessed by predominant co-localization between eGFP or PGRN (V5) and the neuronal marker NeuN at 3 months of age.

C-TAP PGRN = C-TAP PGRN (UniProt P28799)
cathepsin L = cathepsin L (Homo sapiens, UniProt P07711); experiment: In vitro cleavage of PGRN by recombinant cathepsin L; format: biochemical
cathepsin L, sequence (P07711 114-333, species assumed): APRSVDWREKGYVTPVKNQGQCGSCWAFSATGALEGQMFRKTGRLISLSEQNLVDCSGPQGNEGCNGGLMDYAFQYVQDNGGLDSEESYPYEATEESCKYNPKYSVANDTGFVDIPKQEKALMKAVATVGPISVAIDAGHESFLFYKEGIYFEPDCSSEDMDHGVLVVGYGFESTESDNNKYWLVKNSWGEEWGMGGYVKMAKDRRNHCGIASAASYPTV

HAP1 PGRN KO cells = experiment: Uptake and processing of C-TAP or N-TAP PGRN into GRNs (immunoblot); format: cell-based, human; details: 5 μg/mL, 24 hrs, compared to N-TAP PGRN
Method: HAP1 PGRN KO cells were treated with C-TAP PGRN or N-TAP PGRN (5 μg/mL) for 24 hrs and […] lysates were analyzed for PGRN and GRN by immunoblot.
PGRN levels have been linked to expression of several genes including SORT1, encoding the membrane receptor sortilin, and TMEM106B, encoding the transmembrane protein 106B (TMEM106B). Thus, altered expression of these proteins could affect the production of intracellular GRNs as well. To address this, experiments were performed to determine if expression of sortilin, which facilitates endocytosis and trafficking of PGRN to the lysosome, influences GRN levels. PGRN KO cells were treated with PGRN tagged at either the C-terminus (C-TAP), which disrupts sortilin binding or the N-terminus (N-TAP), which preserves sortilin binding, and measured intracellular PGRN and GRN by immunoblot. […] Next, HAP1 SORT1 KO cells were generated using CRISPR/Cas9 technology. […] Thus, disruption of the SORT1/PGRN axis alters intracellular PGRN trafficking and leads to decreased GRN production.

CCCC[C@@H](C=O)NC(=O)[C@H](CC(C)C)NC(=O)[C@H](CC(C)C)NC(C)=O [ALLN] (Ac-Leu-Leu-[Nle]-aldehyde)
GRN levels compared to vehicle treated control [1]: reduced GRN levels

CC(NC(=O)[C@H](Cc1ccccc1)NC(=O)OCc1ccccc1)C(=O)CF (stereo partly drawn) [Z-FA-fmk]
GRN levels compared to vehicle treated control [1]: reduced GRN levels

CO/C1=C\C(C)=C\[C@@H](C)[C@@H](O)[C@@H](C)C/C(C)=C/C=C/[C@H](OC)[C@@H]([C@@H](C)[C@@H](O)[C@H](C)[C@@]2(O)C[C@@H](O)[C@H](C)[C@@H](C(C)C)O2)OC1=O [bafilomycin A1]
secreted PGRN [2]: significantly increased
GRN levels [2]: significantly decreased
intracellular PGRN [2]: significantly increased

O=C[C@H](Cc1ccc(O)cc1)NC(=O)[C@H](Cc1ccccc1)NC(=O)OCc1ccccc1 [cathepsin L inhibitor II, Z-FY-CHO] (Cbz-Phe-Tyr-aldehyde)
endogenous PGRN [3]: modestly increased
production of GRN [3]: significantly decreasing

CCN(CC)CCCC(C)Nc1ccnc2cc(Cl)ccc12 (stereo not drawn) [chloroquine]
secreted PGRN [2]: significantly increased
GRN levels [2]: significantly decreased
intracellular PGRN [2]: significantly increased

C/C=C/[C@H]1O[C@@](O)([C@@H](C)[C@H](O)[C@H](C)[C@H]2OC(=O)/C(OC)=C/C(C)=C/[C@@H](C)[C@@H](O)[C@@H](CC)[C@@H](O)[C@H](C)C/C(C)=C/C=C/[C@@H]2OC)C[C@@H](O[C@H]2C[C@@H](O)[C@H](OC(N)=O)[C@@H](C)O2)[C@@H]1C [concanamycin A1, concanamycin A]
secreted PGRN [2]: significantly increased
GRN levels [2]: significantly decreased
intracellular PGRN [2]: significantly increased

CC(=O)N[C@@H](CC(C)C)C(=O)N[C@@H](CC(C)C)C(=O)N[C@H](C=O)CCCNC(=N)N [leupeptin]
GRN levels compared to vehicle treated control [1]: reduced GRN levels

CCCCCCCC [octane]
percent solubility in water by weight [4]: 0.63×10^−4 % w/w

GRN-2: recombinant human granulin-2 protein, SEQ ID NO: 21, with twin Strep-tag (AIQCPDSQFECPDFSTCCVMVDGSWGCCPMPQASCCEDRVHCCPHGAFCDLVHTRCIT; cysteine pairing not given here; also: twin Strep-tag (position not given here))
CTSD phenotype (total mature CTSD levels) (Grn KO MEF cells): rescues the CTSD phenotype

N-TAP PGRN: full-length human PGRN with twin Strep tag and V5 epitope after the signal sequence; preserves sortilin binding
endocytosis of PGRN and generation of mature human GRNs [5]: equally well

recombinant cathepsin L
in vitro cleavage of PGRN (immunoblot) (C-TAP PGRN): Incubation of cathepsin L and recombinant human PGRN lead to the time-dependent decrease of full-length PGRN and a corresponding increase of GRN protein

recombinant human PGRN: recombinant full-length human progranulin protein (C-TAP PGRN in the cathepsin L cleavage)
GRNs generated by in vitro cleavage with cathepsin L (cathepsin L; 2 hrs, immunoblot): generated multiple, mature GRNs including GRN-2, -3, and -4
full-length PGRN on incubation with cathepsin L (cathepsin L; with corresponding increase of GRN protein): time-dependent decrease
CTSD phenotype (total mature CTSD levels) (Grn KO MEF cells): can be rescued
endocytosis of PGRN and generation of mature human GRNs [5]: efficiently endocytosed

B1: C-TAP PGRN: full-length human PGRN with C-terminal twin-Strep tag followed by FLAG epitope; disrupts sortilin binding (protein)
chain: TRCPDGQFCPVACCLDPGGASYSCCRPLLDKWPTTLSRHLGGPCQVDAHCSAGHSCIFTVSGTSSCCPFPEAVACGDGHHCCPRGFHCSADGRSCFQRSGNNSVGAIQCPDSQFECPDFSTCCVMVDGSWGCCPMPQASCCEDRVHCCPHGAFCDLVHTRCITPTGTHPLAKKLPAQRTNRAVALSSSVMCPDARSRCPDGSTCCELPSGKYGCCPMPNATCCSDHLHCCPQDTVCDLIQSKCLSKENATTDLLTKLPAHTVGDVKCDMEVSCPDGYTCCRLQSGAWGCCPFTQAVCCEDHIHCCPAGFTCDTQKGTCEQGPHQVPWMEKAPAHLSLPDPQALKRDVPCDNVSSCPSSDTCCQLTSGEWGCCPIPEAVCCSDHQHCCPQGYTCVAEGQCQRGSEIVAGLEKMPARRASLSHPRDIGCDQHTSCPVGQTCCPSLGGSWACCQLPHAVCCEDRQHCCPAGYTCNVKARSCEKEVVSAQPATFLARSPHVGVKDVECGEGHFCHDNQTCCRDNRQGWACCPYRQGVCCADRRHCCPAGFRCAARGTKCLRREAPRWDAPLRDPALRQLL
modifications: left off: small tags and cut ends
endocytosis and processing into GRNs (HAP1 PGRN KO cells): not efficiently endocytosed and processed into GRNs
endocytosis of PGRN and generation of mature human GRNs [5]: equally well

From patent US20240002459A1, “Granulin Compositions and Uses Related Thereto” (Emory University, priority 2016, published 2024)
